This note sets out measurements from patent publication US9982265B2, “Inhibition of Bruton's tyrosine kinase (Btk) in the lung to treat severe lung inflammation and lung injury” (BOARD OF REGENTS, THE UNIVERSITY OF TEXAS SYSTEM, priority 2014, dated 2018).

The test system of series [1] is Btk. The series can be described thus: Expression of Btk / pBtk in alveolar neutrophils of treated ALI mice, laser confocal microscopy. To be noted: LPS/IC ALI; 2 h after administration of ICs; FIG. 4B. It is filed as in vivo. Here is the method: (§1) Laser Confocal Microscopy: Purified alveolar neutrophils mounted on cytospins were incubated with the following primary antibodies: anti-mouse Btk, anti-mouse MyD88, anti-mouse MMP-9 (Santa Cruz Biotechnology), and anti-mouse pBtk (Invitrogen, Grand Island, N.Y.). Species specific antibodies conjugated with fluorescent dyes were subsequently applied to slides. Lung tissue sections, processed as routinely done in our laboratory (26, 28), were incubated with anti-mouse FcγRIII antibody (R&D Systems, Minneapolis, Minn.), or anti-mouse MMP-9 antibody (Santa Cruz Biotechnology), or with anti-neutrophil (Ly6G1A8) antibody (Bio X Cell, West Lebanon, N.H.) followed by fluorescence dye-conjugated secondary antibodies. Hoechst 33342 (Calbiochem, San Diego, Calif.) was employed to stain nuclei. Laser confocal microscopy was performed using PerkinElmer Ultra VIEW LCI confocal imaging system with Nikon TE2000-S fluorescence microscope and PlanApox60 immersion oil objective (numerical aperture [NA] 1.4) at room temperature. Ultra VIEW Imaging Suite software (version 5.5.0.4) was used for image processing.
Laser confocal microscopy was employed to confirm the effectiveness of Btk blocking in alveolar neutrophils. […] The effectiveness of Btk silencing in alveolar neutrophils was 92%. […] These experiments were performed at 2 h after administration of ICs.

Series [2] has as its system MMP-9. The series can be described thus: Expression of MMP-9 in alveolar neutrophils of treated ALI mice, laser confocal microscopy. It is filed as in vivo. The note with it: LPS/IC ALI; FIGS. 6A and B. Here is the method: as §1
Neutrophils are implicated in ALI because of various substances released from granules into the area of inflammation. MMP-9 (gelatinase B) is one of the most extensively studied MMPs in the context of ALI. […]

Series [3] deals with thrombomodulin (TM). The series can be described thus: Thrombomodulin in BAL fluid by Western blot, LPS/IC induced ALI. In kind it is in vivo, mice. The note with it: FIG. 6D. Here is the method:
Western Blotting: BAL fluids were subjected to SDS PAGE electrophoresis, transferred onto PVDF membrane and further evaluated for the presence of thrombomodulin using anti-mouse TM antibody (M-17; Santa Cruz Biotechnology, Santa Cruz, Calif.). In some experiments cell culture media or cell lysates were analyzed for level of MPO or actin (EMD Millipore, Billerica, Mass. and Santa Cruz Biotechnology, respectively) or phospho-p40 phox (Santa Cruz Biotechnology).
Endothelial damage in this ALI model was also examined by assessing the release of thrombomodulin (TM), which is a membrane protein expressed on the capillary endothelium (40, 52). A Western Blot analysis of BAL fluid samples was performed (FIG. 6D) from control mice (Saline), mice with LPS/IC induced ALI, and mice treated with siRNA specific for Btk, or MMP-9, or control siRNA. The bar graph in FIG. 6D includes data from 3 experiments. For each repetition a fold over a corresponding control was calculated. Means of all repetitions as well as associated standard deviations were graphed. […] The same was true for mice that received nonspecific control siRNA (p<0.05).
(In general: In western blotting, separated proteins are transferred to a membrane and probed.)

For the substance “Cont siRNA: control siRNA #8 (SEQ ID NO:26/27) conjugated to F(ab′)2 fragments of Ly6G1A8 (chain 1 UUCCUCUCCACGCGCAGUACAUUUA; chain 2 AAGGAGAGGUGCGCGUCAUGUAAAU; conjugated to antibody F(ab')2 fragment, attachment not given here; one strand is listed 3' to 5')”, the “Btk in lung neutrophils” value in series [1] is on record as “normal levels”. The “MMP-9 expression in lung neutrophils” value in series [2] is recorded as “detectable”. Further, the “levels of thrombomodulin (TM) in BAL fluid” value in series [3] is recorded as “significantly increased levels”.
